Measured values: article PMC8524858, “Dual inhibition of αvβ6 and αvβ1 reduces fibrogenesis in lung tissue explants from patients with IPF” (Respiratory Research, 2021)

Key:
human integrin αvβ3 = target: T1, human integrin αvβ3 (Homo sapiens, UniProt P05106+P06756); experiment: Integrin ligand-binding assay, αvβ3 (vitronectin ligand)
T1 construct: purchased R&D Systems 3050-AV
Method: (§1) Integrin ligand-binding assays were performed similar to that previously described.
(§2) Microplates were coated with recombinant human integrins dissolved in PBS (2 µg/ml, overnight at room temperature). Following removal of the coating solution, plates were washed with PBS. Plates were blocked with 200 µL/well of blocking buffer (2% bovine serum albumin [BSA] in PBS) at 37 °C for 1 h. […] Plates were incubated for 2 h at 25 °C, washed, and incubated for 1 h with biotin-labeled anti-fibronectin or anti-LAP antibodies (for αvβ1 or αvβ6/αvβ8, respectively).

human integrin αvβ5 = target: T2, human integrin αvβ5 (Homo sapiens, UniProt P06756+P18084); experiment: Integrin ligand-binding assay, αvβ5 (vitronectin ligand)
T2 construct: purchased R&D Systems 2528-AV
Method: as §1, §2

human integrin αvβ8 = target: T3, human integrin αvβ8 (Homo sapiens, UniProt P06756+P26012); experiment: Integrin ligand-binding assay, αvβ8 (LAP ligand)
T3 construct: purchased R&D Systems 4135-AV
Method: as §1, §2

[1] = target: T4, αvβ6-induced TGF-β activation (Homo sapiens, UniProt P06756+P18564); experiment: TGF-β co-culture assay, SW-β6 cells with MLEC luciferase reporter cells; format: cell-based; conditions: integrin αvβ6
T4 construct: expressed in transfected cells; host or cells: SW480 cells stably transfected with β6 (SW-β6), co-cultured with MLEC reporter cells
Method: SW-β6 cells and MLECs or CHO-αv cells and MLECs were cultured in 96-well plates with test compounds or antibodies for 20 h at 37 °C in a 5% CO2 incubator. […] Measurement of MLEC luciferase production resulting from αvβ6- or αvβ1-mediated TGF-β activation was performed using the Bright-Glo Luciferase Assay System (Promega; Madison, WI, USA) according to manufacturer’s instruction. Luminescence was quantified by a Tecan Spark 10M plate reader. IC50 curves were generated using Dotmatics software suite with five-parameter logistic curve fitting. Geometric mean IC50 was calculated for each compound from multiple independent analyses.

[2] = system: PCLSs prepared from explanted lung tissue from patients with IPF; experiment: Fibrotic gene expression in PCLSs from IPF lung explants; format: cell-based, human
Text: (§3) PCLSs were generated from explanted lung tissue from patients with IPF and cultured as previously described. Mouse PCLSs were generated and cultured as previously described. Messenger ribonucleic acid (mRNA) levels in lysates prepared from snap-frozen tissue slices were quantified via NanoString PlexSet reagents and nCounter SPRINT Profiler (NanoString; Seattle, WA, USA; Additional file 1: Table S2) or TaqMan primers/probes on a Bio-Rad CFX96 thermocycler (Bio-Rad; Hercules, CA, USA; Additional file 1: Table S3).
(§4) Human PCLSs were generated from lung tissue explants from patients with IPF undergoing transplant surgery and cultured based on previously reported methods (E7-E12). Slices of tissue (400 µm) were cut using a Compresstome VF-300-0Z (Precisionary Instruments; Natick, MA, USA).
(§5) Slices from each individual core (human) or mouse were distributed among the treatment groups to control for variability in the fibrotic injury within the tissue. […] After 3 or 7 days in culture, slices were washed and snap-frozen. Viability of sentinel slices on Days 0/1 and 3/7 was determined using WST-1 Cell Proliferation Reagent (Sigma 5015944001; St Louis, MO, USA).
(§6) For all figures (except Fig. 2B, Fig. S2, and Fig. S4), snap-frozen tissue slices were incubated in one-third RLT buffer (Qiagen #79216; Venlo, Netherlands) supplemented with 2 mg/ml proteinase K (Sigma-Aldrich #3115887001; St Louis, MO, USA) at 55 °C for 2 h 45 min, with periodic vortexing to generate ribonucleic acid (RNA)-compatible tissue lysate. This lysate was incubated overnight with probes from a custom fibrosis gene panel and NanoString PlexSet reagents (Table S2). The following day, samples were analyzed on a NanoString nCounter SPRINT Profiler (NanoString; Seattle, WA, USA). Messenger RNA (mRNA) counts were normalized to housekeeping genes (GUSB, HPRT1, RPLP0, and/or POLR1B) and total mRNA counts, relative to vehicle-treated control from the same experiment, are reported.

[3] = system: Smad2 phosphorylation (canonical TGF-β signaling) in IPF PCLSs; experiment: Smad2 phosphorylation in PCLSs from IPF explant tissue; format: cell-based, human; conditions: 7 days; n = 3 individual patients (Fig. S1B)
Method: Integrin αvβ1 protein levels and Smad phosphorylation levels in tissues or cells were quantified by the Meso Scale Discovery custom electrochemiluminescence assay.
Biotin-labeled antibodies for total Smad2/3, phosphorylated Smad2 (pSmad2), and total Smad2 (Cell Signaling Technology; Danvers, MA, USA), and antibodies for phosphorylated Smad3 (pSmad3) and total Smad3 (Abcam; Cambridge, UK) were utilized for pSmad electrochemiluminescence assays.
pSmad2 and total Smad2 quantitation were performed similarly to that described for pSmad3 and total Smad3 above, with the exception that U-PLEX linker conjugated biotinylated anti-pSmad2 and total Smad2 antibodies were bound to U-PLEX MSD assay plates (MSD; K15227N-2) according to manufacturer’s instruction, followed by unknown sample incubation and addition of sulfo-tag-labeled anti-Smad2/3 antibody.
as §4

[4] = system: PCLSs prepared from bleomycin-challenged mouse lungs; experiment: Col1a1 expression in PCLSs from bleomycin-challenged mouse lungs; format: cell-based
Text: as §3
Mouse PCLSs were generated and cultured based on previously reported methods (E13). Briefly, mice were challenged with bleomycin (Hospira; Lake Forest, IL, USA or Teva; Toronto, ON, Canada), either acutely with a single dose (3 U/kg or 4 U/kg) or chronically with multiple doses (3 U/kg bleomycin followed by four 1 U/kg challenges at 2-week intervals). Fourteen days after the final bleomycin challenge, lungs were harvested and 200 μm-thick slices were cut using a Compresstome VF-300-0Z (Precisionary Instruments).
as §5, §6
For Figs. 2B, S2, and S4, RNA purification and qPCR were performed by Transcriptic, Inc. (Menlo Park, CA, USA) using a proprietary automated protocol. Briefly, RNA was purified on a KingFisher Flex system (Thermo Fisher) and qPCR was performed on a Bio-Rad CFX96 (Bio-Rad; Hercules, CA, USA) with TaqMan primers/probes (Thermo Fisher) listed in Table S3. Ct values were normalized to housekeeping genes (Rn18sRn45s and Hprt) and reported as ddCT and fold change versus the vehicle-treated samples.

[5] = 7 days, PLN-74809 200 nM, relative to vehicle (Fig. 6B)

T4 sequence (P06756 31-1048): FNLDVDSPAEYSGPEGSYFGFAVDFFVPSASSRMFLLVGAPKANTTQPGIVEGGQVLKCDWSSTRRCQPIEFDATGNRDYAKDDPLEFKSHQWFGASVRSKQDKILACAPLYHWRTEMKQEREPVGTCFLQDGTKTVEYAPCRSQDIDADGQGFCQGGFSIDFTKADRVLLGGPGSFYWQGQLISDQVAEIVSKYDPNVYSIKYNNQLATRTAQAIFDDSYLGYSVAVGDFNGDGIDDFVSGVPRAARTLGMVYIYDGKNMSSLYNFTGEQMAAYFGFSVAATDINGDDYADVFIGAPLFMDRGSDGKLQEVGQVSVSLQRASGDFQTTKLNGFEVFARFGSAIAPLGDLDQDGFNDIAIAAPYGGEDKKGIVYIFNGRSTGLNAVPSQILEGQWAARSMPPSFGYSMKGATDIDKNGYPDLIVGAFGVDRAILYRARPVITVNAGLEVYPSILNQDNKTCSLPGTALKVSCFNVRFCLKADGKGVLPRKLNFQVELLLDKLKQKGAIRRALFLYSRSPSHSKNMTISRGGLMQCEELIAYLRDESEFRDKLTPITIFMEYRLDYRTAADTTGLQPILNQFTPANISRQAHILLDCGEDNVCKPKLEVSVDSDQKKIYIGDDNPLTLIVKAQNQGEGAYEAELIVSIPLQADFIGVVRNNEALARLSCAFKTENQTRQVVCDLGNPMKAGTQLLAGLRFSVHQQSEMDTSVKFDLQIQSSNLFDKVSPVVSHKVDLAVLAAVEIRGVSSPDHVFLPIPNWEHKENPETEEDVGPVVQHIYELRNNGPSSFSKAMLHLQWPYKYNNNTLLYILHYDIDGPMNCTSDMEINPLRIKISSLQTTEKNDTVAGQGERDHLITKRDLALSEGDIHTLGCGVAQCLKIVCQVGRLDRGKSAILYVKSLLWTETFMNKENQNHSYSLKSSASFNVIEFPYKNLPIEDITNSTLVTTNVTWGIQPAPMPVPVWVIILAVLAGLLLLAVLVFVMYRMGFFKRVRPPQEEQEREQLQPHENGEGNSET
T4 sequence (P18564 22-788): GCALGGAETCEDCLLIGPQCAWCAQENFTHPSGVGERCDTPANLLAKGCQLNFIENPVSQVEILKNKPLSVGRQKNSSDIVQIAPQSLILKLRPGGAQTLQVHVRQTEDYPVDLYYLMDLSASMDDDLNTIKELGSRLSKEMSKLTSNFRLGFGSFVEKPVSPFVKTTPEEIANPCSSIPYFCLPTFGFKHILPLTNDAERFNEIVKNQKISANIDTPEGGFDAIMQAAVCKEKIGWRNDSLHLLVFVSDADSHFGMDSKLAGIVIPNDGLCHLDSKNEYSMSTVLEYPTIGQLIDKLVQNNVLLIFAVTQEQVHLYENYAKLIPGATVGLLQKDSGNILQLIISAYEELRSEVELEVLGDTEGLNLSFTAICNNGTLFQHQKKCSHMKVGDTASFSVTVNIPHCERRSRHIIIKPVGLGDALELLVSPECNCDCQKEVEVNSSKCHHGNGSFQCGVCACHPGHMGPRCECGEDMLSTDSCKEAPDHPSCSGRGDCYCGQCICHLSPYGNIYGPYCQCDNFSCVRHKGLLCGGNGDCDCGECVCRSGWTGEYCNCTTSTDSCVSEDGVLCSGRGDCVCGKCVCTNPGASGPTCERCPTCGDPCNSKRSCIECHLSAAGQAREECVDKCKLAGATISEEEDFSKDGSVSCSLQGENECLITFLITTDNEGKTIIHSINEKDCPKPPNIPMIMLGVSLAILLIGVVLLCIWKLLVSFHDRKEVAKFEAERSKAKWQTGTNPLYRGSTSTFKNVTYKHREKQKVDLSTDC
T3 sequence (P06756 31-992 limits assumed): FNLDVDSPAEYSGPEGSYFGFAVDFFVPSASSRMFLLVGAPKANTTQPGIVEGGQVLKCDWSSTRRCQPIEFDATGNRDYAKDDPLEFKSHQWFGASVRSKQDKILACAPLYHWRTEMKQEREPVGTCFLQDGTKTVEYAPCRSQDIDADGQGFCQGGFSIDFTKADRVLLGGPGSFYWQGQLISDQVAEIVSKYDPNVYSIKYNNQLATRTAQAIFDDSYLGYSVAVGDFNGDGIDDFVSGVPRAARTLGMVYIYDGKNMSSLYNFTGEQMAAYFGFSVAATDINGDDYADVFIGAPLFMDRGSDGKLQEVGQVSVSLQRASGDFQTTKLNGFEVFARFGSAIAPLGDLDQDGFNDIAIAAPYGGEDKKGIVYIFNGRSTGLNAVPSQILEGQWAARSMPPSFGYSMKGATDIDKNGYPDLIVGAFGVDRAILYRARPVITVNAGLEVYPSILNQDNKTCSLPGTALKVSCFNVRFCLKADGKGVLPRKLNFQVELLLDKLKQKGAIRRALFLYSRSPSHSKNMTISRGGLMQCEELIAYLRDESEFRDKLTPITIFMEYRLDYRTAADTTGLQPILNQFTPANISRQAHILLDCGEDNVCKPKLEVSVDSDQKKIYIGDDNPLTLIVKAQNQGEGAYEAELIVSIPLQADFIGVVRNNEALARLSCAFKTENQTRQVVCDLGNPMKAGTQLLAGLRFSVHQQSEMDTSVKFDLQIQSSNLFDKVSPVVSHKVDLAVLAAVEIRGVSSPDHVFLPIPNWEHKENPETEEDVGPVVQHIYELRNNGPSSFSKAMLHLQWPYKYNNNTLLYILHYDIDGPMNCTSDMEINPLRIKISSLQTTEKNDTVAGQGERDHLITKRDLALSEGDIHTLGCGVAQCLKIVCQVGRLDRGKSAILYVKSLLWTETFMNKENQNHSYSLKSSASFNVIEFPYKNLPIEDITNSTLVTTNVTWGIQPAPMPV
T3 sequence (P26012 43-684 limits assumed): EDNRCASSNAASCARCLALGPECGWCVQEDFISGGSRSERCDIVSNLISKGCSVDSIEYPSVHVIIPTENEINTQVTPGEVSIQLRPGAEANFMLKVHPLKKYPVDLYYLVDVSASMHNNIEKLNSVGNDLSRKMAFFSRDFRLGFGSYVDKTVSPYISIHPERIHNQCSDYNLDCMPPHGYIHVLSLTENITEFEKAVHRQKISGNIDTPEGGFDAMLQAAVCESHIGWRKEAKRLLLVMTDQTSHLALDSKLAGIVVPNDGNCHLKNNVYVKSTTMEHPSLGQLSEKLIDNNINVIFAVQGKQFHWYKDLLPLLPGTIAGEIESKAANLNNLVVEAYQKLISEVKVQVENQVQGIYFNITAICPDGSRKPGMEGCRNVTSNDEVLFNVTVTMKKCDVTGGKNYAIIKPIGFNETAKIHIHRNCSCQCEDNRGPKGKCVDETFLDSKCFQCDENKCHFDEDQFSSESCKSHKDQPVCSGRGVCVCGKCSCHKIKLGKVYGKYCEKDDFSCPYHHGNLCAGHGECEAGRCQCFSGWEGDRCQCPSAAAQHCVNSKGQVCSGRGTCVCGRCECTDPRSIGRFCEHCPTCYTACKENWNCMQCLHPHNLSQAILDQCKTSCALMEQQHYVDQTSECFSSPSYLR
T2 sequence (P06756 31-992 limits assumed): as the sequence (P06756 31-992 limits assumed) above
T2 sequence (P18084 24-719 limits assumed): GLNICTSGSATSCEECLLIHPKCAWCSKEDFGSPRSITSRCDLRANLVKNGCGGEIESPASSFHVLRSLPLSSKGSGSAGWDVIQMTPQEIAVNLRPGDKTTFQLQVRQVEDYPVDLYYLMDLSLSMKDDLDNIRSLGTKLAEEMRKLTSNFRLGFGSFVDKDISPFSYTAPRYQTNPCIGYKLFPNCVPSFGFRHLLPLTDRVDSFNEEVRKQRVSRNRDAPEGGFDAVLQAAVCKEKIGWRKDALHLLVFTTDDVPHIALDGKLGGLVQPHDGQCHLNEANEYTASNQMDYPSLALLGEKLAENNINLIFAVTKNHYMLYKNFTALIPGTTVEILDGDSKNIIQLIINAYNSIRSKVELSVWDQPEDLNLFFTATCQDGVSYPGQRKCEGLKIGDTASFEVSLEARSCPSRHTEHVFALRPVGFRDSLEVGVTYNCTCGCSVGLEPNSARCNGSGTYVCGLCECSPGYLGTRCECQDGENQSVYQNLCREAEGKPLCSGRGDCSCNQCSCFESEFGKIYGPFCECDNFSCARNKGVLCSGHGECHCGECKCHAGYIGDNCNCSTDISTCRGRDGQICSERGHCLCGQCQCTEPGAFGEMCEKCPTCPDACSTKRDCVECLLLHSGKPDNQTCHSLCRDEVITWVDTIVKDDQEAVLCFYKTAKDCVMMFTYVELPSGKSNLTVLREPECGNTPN
T1 sequence (P06756 31-992 limits assumed): as the sequence (P06756 31-992 limits assumed) above
T1 sequence (P05106 27-718 limits assumed): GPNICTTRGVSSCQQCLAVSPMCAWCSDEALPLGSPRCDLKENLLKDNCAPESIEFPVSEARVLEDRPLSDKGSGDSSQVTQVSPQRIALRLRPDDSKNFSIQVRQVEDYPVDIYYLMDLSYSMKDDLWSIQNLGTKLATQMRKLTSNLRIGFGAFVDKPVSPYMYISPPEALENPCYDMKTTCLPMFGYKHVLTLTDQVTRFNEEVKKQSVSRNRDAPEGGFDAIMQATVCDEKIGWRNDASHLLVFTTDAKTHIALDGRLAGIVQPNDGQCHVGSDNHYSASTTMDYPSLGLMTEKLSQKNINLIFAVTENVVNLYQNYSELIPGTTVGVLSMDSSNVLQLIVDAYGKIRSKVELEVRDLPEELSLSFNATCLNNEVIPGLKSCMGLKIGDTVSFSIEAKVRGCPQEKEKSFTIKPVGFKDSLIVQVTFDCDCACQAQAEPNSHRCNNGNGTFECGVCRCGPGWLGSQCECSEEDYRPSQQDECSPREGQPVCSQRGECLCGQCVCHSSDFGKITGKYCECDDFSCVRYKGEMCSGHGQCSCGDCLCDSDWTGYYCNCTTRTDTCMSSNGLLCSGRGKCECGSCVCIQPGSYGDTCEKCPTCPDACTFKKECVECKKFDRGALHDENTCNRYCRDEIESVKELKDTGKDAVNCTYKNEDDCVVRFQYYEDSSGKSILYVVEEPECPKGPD

COCCN(CCCCc1ccc2c(n1)NCCC2)CC[C@H](Nc1ncnc2ccccc12)C(=O)O [PLN-74809]
IC50 (human integrin αvβ3): > 10000 nM | Fold selectivity (vs αvβ6) (human integrin αvβ3; ligand binding): > 1754× | IC50 (human integrin αvβ5): 6990 nM | Fold selectivity (vs αvβ6) (human integrin αvβ5; ligand binding): 1226× | IC50 (human integrin αvβ8): 2540 nM | Fold selectivity (vs αvβ6) (human integrin αvβ8; ligand binding): 445× | Fold selectivity (vs αvβ6) ([1]; TGF-β activation): 1× | IC50 [1]: 29.8 nM | reduction of COL1A1 mRNA expression ([2]; 7-day incubation, Compound A 471 nM, 3G9 0.5 µg/ml, PLN-74809 1.82 µM, ALK5i R-268712 1 µM, vs vehicle (Fig. 1A)): 54% | reduction of COL1A1 mRNA expression ([2]; 7 days, PLN-74809 200 nM, nintedanib 75 nM, pirfenidone 50 µM, vs DMSO (Fig. 6A)): 42% | reduction of COL3A1 expression [2, 5]: 30% | reduction of SERPINE1 expression [2, 5]: 39% | reduction of TIMP1 expression [2, 5]: 26% | reduction of collagen gene expression ([2]; at concentrations as low as 2 nM, explanted tissue from a patient with IPF): ~ 50% | lowest concentration sufficient to significantly reduce COL1A1 expression ([2]; dose titration, PCLSs from a single patient with IPF (Fig. S1C)): 2 nM | reduction in Smad2 phosphorylation [3]: approximately 50% | lowest concentration with significant reduction of Col1a1 mRNA expression ([4]; 3 days of treatment (Fig. S2)): 16 nM | reduction of Col1a1 mRNA expression ([4]; 3 days of treatment, dose titration (Fig. S2)): up to 71% | IC50 ([4]; Mus musculus, 72 h, 3 days of treatment, extrapolation from dose-response curve of combined experiments (Fig. S4), read-out: minimum concentration required to reduce Col1a1 mRNA levels by 50%): 172 nM | inhibition of collagen mRNA expression ([4]; acutely injured mouse lungs, 3 days, PLN-74809 200 nM, GSK3008348 1000 nM, CWHM-12 1000 nM (Fig. 2B)): virtually the same degree as less selective multi-αv integrin inhibitors | effect on Col1a1 gene expression ([4]; chronic bleomycin-challenged mouse lungs, 7 days of treatment, nintedanib and pirfenidone at approximate clinical Cmax (Fig. 6C)): significantly reduced | effect on Col1a1 mRNA expression ([4]; chronic bleomycin-challenged mouse lungs, 7 days, Compound A 471 nM, 3G9 0.5 µg/ml, PLN-74809 1.82 µM (Fig. 2A)): effective at significantly reducing
